# In patent publication US20190367516A1 (Bayer Pharma Aktiengesellschaft, priority 2015, published 2019):
# Read-outs that look alike come from different tables or passages of the source.
# Tests used:
# [1] = molecular target: T1, human M2 receptor (Homo sapiens, UniProt P08172); type: cell-based; settings: α >1 = positive cooperativity
# T1 sequence (P08172 1-466): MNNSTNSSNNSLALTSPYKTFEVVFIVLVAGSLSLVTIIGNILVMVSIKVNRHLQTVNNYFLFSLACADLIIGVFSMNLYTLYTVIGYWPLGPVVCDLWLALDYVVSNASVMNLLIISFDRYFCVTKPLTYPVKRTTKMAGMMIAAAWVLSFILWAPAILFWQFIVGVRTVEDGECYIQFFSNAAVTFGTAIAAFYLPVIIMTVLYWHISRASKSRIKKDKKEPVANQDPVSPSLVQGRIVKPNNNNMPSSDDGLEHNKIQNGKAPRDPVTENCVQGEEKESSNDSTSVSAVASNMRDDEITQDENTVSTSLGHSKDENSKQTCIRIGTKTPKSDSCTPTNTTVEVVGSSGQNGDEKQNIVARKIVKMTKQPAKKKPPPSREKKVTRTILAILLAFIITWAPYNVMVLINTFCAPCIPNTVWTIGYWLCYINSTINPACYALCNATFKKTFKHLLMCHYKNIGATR
# [2] = molecular target: T1, human M2 receptor; settings: for Efficiency: boosting of the acetylcholine effect at EC20 acetylcholine concentration; for Emax: read-out: Efficiency, boosting of the acetylcholine effect at EC20 acetylcholine concentration
# [3] = shift of acetylcholine dose-response curve (Allosteric EC50 shift)
# [4] = Receptor activity EC50, allosteric potency at EC20 acetylcholine, M2-GIRK1/4 reporter cells, in some cases mean of two or more determinations
# [5] = read-out: Receptor activity EC50, allosteric potency at EC20 acetylcholine, M2-GIRK1/4 reporter cells, in some cases mean of two or more determinations
# [6] = shift in the acetylcholine dose-response curve (Allosteric EC50 shift, GraphPad PRISM)
# [7] = Receptor activity EC50, M2-GIRK1/4 activation test, acetylcholine at EC20, allosteric potency, in some cases mean values from two or more determinations
smiles,measurement,setting,value
"CCC1CCN(c2ccc3c(=O)c(C(=O)N[C@@H](C4CC4)C(F)(F)F)cn(-c4c(F)cc(F)cc4F)c3n2)C(=O)N1 (single isomer, unassigned) [Example 448, N-[(1 S)-1-Cyclopropyl-2,2,2-trifluoroethyl]-7-[4-ethyl-2-oxotetrahydropyrimidin-1(2H)-yl]-4-oxo-1-(2,4,6-trifluorophenyl)-1,4-dihydro-1,8-naphthyridine-3-carboxamide]",Cooperativity (alpha factor),[1]; [3],22
same,EC50,[2]; [4],19 nM
same,Efficiency,[2]; M2-GIRK1/4 reporter cells,97.0%
"CC[C@@H](COC(F)(F)F)NC(=O)c1cn(-c2c(F)cc(F)cc2F)c2nc(N3C[C@@H](C)NC3=O)ccc2c1=O (single isomer, unassigned) [Example 454]",Cooperativity (alpha factor),[1]; [3],28
same,EC50,[2]; [4],7 nM
same,Emax,[2]; M2-GIRK1/4 reporter cells,100%
"CC[C@@H](COC(F)(F)F)NC(=O)c1cn(-c2c(F)cc(F)cc2F)c2nc(N3C[C@@H](C)NC3=O)ccc2c1=O (single isomer, unassigned) [Example 455]",Cooperativity (alpha factor),[1]; [3],17
same,EC50,[2]; [4],10 nM
same,Efficiency,[2]; M2-GIRK1/4 reporter cells,100.0%
"O=C(NC(C1CCC1)C(F)(F)F)c1cn(-c2c(F)cc(F)cc2F)c2nc(N3C[C@@H](O)CC3=O)ccc2c1=O (single isomer, unassigned) [Example 506]",Cooperativity (alpha factor),[1]; [3],57
same,EC50,[2]; [4],7 nM
same,Emax,[2]; M2-GIRK1/4 reporter cells,100%
"O=C(NC(C1CCC1)C(F)(F)F)c1cn(-c2c(F)cc(F)cc2F)c2nc(N3C[C@@H](O)CC3=O)ccc2c1=O (single isomer, unassigned) [Example 507]",Cooperativity (alpha factor),[1]; [3],37
same,EC50,[2]; [4],6 nM
same,Efficiency,[2]; M2-GIRK1/4 reporter cells,98.0%
"CC(NC(=O)c1cn(-c2c(F)cc(F)cc2F)c2nc(N3C[C@@H](O)CC3=O)ccc2c1=O)(C1CC1)C(F)(F)F (single isomer, unassigned) [Example 510]",Cooperativity (alpha factor),[1]; [3],46
same,EC50,[2]; [4],6 nM
same,Efficiency,[2]; M2-GIRK1/4 reporter cells,94.0%
"O=C(NC(CC(F)(F)F)C1CC1)c1cn(-c2c(F)cc(F)cc2F)c2nc(N3C[C@@H](O)CC3=O)ccc2c1=O (single isomer, unassigned) [Example 514]",Cooperativity (alpha factor),[1]; [3],30
same,Efficiency,[2]; M2-GIRK1/4 reporter cells,99.0%
same,EC50,[2]; [5],10 nM
"CCC(NC(=O)c1cn(-c2c(F)cc(F)cc2F)c2nc(N3C[C@@H](O)CC3=O)ccc2c1=O)C(F)(F)C(F)(F)F (single isomer, unassigned) [Example 521]",Cooperativity (alpha factor),[1]; [3],72
same,Efficiency,[2]; M2-GIRK1/4 reporter cells,100.0%
same,EC50,[2]; [5],2 nM
"CC(C)C(NC(=O)c1cn(-c2c(F)cc(F)cc2F)c2nc(N3C[C@@H](O)CC3=O)ccc2c1=O)C(F)(F)F (single isomer, unassigned) [Example 527]",Cooperativity (alpha factor),[1]; [3],61
same,EC50,[2]; [4],5 nM
same,Emax,[2]; M2-GIRK1/4 reporter cells,100%
"CC(C)C(NC(=O)c1cn(-c2c(F)cc(F)cc2F)c2nc(N3C[C@@H](O)CC3=O)ccc2c1=O)C(F)(F)F (single isomer, unassigned) [Example 528]",Cooperativity (alpha factor),[1]; [3],66
same,EC50,[2]; [4],6 nM
same,Efficiency,[2]; M2-GIRK1/4 reporter cells,100.0%
"O=C(N[C@@H](C1CC1)C(F)(F)F)c1cn(-c2c(F)cc(F)cc2Cl)c2nc(N3C[C@@H](O)[C@H](O)C3)ccc2c1=O (single isomer, unassigned) [Example 548]",Cooperativity (alpha factor),[1]; [3],37
same,EC50,[2]; [4],9 nM
same,Efficiency,[2]; M2-GIRK1/4 reporter cells,100.0%
"CC(C)C(NC(=O)c1cn(-c2c(F)cc(F)cc2F)c2nc(N3C[C@@H](O)[C@H](O)C3)ccc2c1=O)C(F)(F)F (single isomer, unassigned) [Example 553]",Cooperativity (alpha factor),[1]; [3],49
same,EC50,[2]; [4],13 nM
same,Emax,[2]; M2-GIRK1/4 reporter cells,97.5%
"CC(C)C(NC(=O)c1cn(-c2c(F)cc(F)cc2F)c2nc(N3C[C@@H](O)[C@H](O)C3)ccc2c1=O)C(F)(F)F (single isomer, unassigned) [Example 554]",Cooperativity (alpha factor),[1]; [3],54
same,EC50,[2]; [4],10 nM
same,Efficiency,[2]; M2-GIRK1/4 reporter cells,94.5%
"CCC(NC(=O)c1cn(-c2ccc(F)cc2F)c2nc(N3C[C@@H](O)CC3=O)ccc2c1=O)C(F)(F)C(F)(F)F (single isomer, unassigned) [Example 557]",Cooperativity (alpha factor),[1]; [3],44
same,EC50,[2]; [4],11 nM
same,Emax,[2]; M2-GIRK1/4 reporter cells,100%
"O=C(NC(c1ccccc1Cl)C(F)(F)F)c1cn(-c2c(F)cc(F)cc2F)c2nc(N3C[C@@H](O)[C@H](O)C3)ccc2c1=O (single isomer, unassigned) [Example 561]",Cooperativity (alpha factor),[1]; [3],62
same,EC50,[2]; [4],4 nM
same,Emax,[2]; M2-GIRK1/4 reporter cells,95%
"O=C(NC(c1ccccc1Cl)C(F)(F)F)c1cn(-c2c(F)cc(F)cc2F)c2nc(N3C[C@@H](O)[C@H](O)C3)ccc2c1=O (single isomer, unassigned) [Example 562]",Cooperativity (alpha factor),[1]; [3],40
same,EC50,[2]; [4],10 nM
same,Efficiency,[2]; M2-GIRK1/4 reporter cells,100.0%
"CCC(COC(F)(F)F)NC(=O)c1cn(-c2c(F)cc(F)cc2F)c2nc(N3C[C@@H](O)[C@H](O)C3)ccc2c1=O (single isomer, unassigned) [Example 578]",Cooperativity (alpha factor),[1]; [3],29
same,EC50,[2]; [4],17 nM
same,Efficiency,[2]; M2-GIRK1/4 reporter cells,100.0%
"O=C(NC(CC(F)(F)F)C(F)(F)F)c1cn(-c2c(F)cc(F)cc2F)c2nc(N3C[C@@H](O)CC3=O)ccc2c1=O (single isomer, unassigned) [Example 607]",Cooperativity (alpha factor),[1]; [3],32
same,EC50,[2]; [4],5 nM
same,Emax,[2]; M2-GIRK1/4 reporter cells,100%
"CC[C@H](NC(=O)c1cn(-c2c(F)cc(F)cc2F)c2nc(N3CC(O)C4(CC4)C3)ccc2c1=O)C(F)(F)F (single isomer, unassigned) [Example 621]",Cooperativity (alpha factor),[1]; [3],44
same,EC50,[2]; [4],10 nM
same,Efficiency,[2]; M2-GIRK1/4 reporter cells,100.0%
"CCC(NC(=O)c1cn(-c2ccc(F)cc2F)c2nc(N3CCN(C(=O)OC)CC3)ccc2c1=O)C(F)(F)F (single isomer, unassigned; enantiomer a) [Example 24, ent-Methyl 4-{8-(2,4-difluorophenyl)-5-oxo-6-[(1,1,1-trifluorobutan-2-yl)carbamoyl]-5,8-dihydro-1,8-naphthyridin-2-yl}piperazine-1-carboxylate (Enantiomer A)]",Cooperativity (alpha factor),[1]; [6],25
same,EC50,[2]; [7],63 nM
"CCC(NC(=O)c1cn(-c2ccc(F)cc2F)c2nc(N3CCN(C(=O)OC)CC3)ccc2c1=O)C(F)(F)F (single isomer, unassigned; enantiomer b) [Example 25, ent-Methyl 4-{8-(2,4-difluorophenyl)-5-oxo-6-[(1,1,1-trifluorobutan-2-yl)carbamoyl]-5,8-dihydro-1,8-naphthyridin-2-yl}piperazine-1-carboxylate (Enantiomer B)]",Cooperativity (alpha factor),[1]; [6],20
same,EC50,[2]; [7],84 nM
"CN(C)c1ccc2c(=O)c(C(=O)NC(C(C)(C)C)C(F)(F)F)cn(-c3ccc(F)cc3F)c2n1 (stereo in doubt) [Example 132, 1-(2,4-Difluorophenyl)-7-(dimethylamino)-4-oxo-N-[(2S)-1,1,1-trifluoro-3,3-dimethylbutan-2-yl]-1,4-dihydro-1,8-naphthyridine-3-carboxamide]",Cooperativity (alpha factor),[1]; [6],7
same,EC50,[2]; [7],10 nM
"CCC(NC(=O)c1cn(-c2ccc(F)cc2F)c2nc(N3CCC(O)C3)ccc2c1=O)C(F)(F)F (stereo in doubt) [Example 218, 1-(2,4-Difluorophenyl)-7-[3-hydroxypyrrolidin-1-yl]-4-oxo-N-[(2S)-1,1,1-trifluorobutan-2-yl]-1,4-dihydro-1,8-naphthyridine-3-carboxamide]",Cooperativity (alpha factor),[1]; [6],33
same,EC50,[2]; [7],153 nM
"CC(C)(C)C(NC(=O)c1cn(-c2c(F)cc(F)cc2F)c2nc(N3CCNC3=O)ccc2c1=O)C(F)(F)F (stereo in doubt) [Example 360, 4-Oxo-7-(2-oxoimidazolidin-1-yl)-N-[(2S)-1,1,1-trifluoro-3,3-dimethylbutan-2-yl]-1-(2,4,6-trifluorophenyl)-1,4-dihydro-1,8-naphthyridine-3-carboxamide]",Cooperativity (alpha factor),[1]; [6],36
same,EC50,[2]; [7],6 nM
"O=C(NC12CC3CC(CC(C3)C1)C2)c1cn(-c2ccc(F)cc2F)c2nc(N3CC4C(C3)C4(F)F)ccc2c1=O (centres unmarked) [Example 2, 7-(6,6-Difluoro-3-azabicylco[3.1.0]hex-3-yl)-1-(2,4-difluorophenyl)-4-oxo-N-(tricyclo[3.3.1.1^3,7]dec-1-yl)-1,4-dihydro-1,8-naphthyridine-3-carboxamide]",Cooperativity (alpha factor),[1]; [6],24
same,EC50,[2]; [7],17 nM
"O=C(NC12CC3CC(CC(C3)C1)C2)c1cn(-c2ccc(F)cc2F)c2nc(N3CC[C@@H](F)[C@H](O)C3)ccc2c1=O [Example 3, 1-(2,4-Difluorophenyl)-7-[(3R,4R)-4-fluoro-3-hydroxypiperidin-1-yl]-4-oxo-N-(tricyclo[3.3.1.1^3,7]dec-1-yl)-1,4-dihydro-1,8-naphthyridine-3-carboxamide]",Cooperativity (alpha factor),[1]; [6],30
same,EC50,[2]; [7],17 nM
